Test results: ChEMBL document CHEMBL1201862, “PubChem BioAssay data set” (2004)
Active and inactive are the calls of the source.

Tests used:
[1] = biological target: T1, Corticotropin-releasing factor receptor 2/Corticotropin-releasing factor-binding protein (Homo sapiens, UniProt P24387+Q13324); experiment: activators of CRF receptor 2 with binding protein – uHTS hits, confirmation (AID 602473); assay type: functional; conditions: read-out: EC50_Mean
T1 sequence (Q13324 whole entry): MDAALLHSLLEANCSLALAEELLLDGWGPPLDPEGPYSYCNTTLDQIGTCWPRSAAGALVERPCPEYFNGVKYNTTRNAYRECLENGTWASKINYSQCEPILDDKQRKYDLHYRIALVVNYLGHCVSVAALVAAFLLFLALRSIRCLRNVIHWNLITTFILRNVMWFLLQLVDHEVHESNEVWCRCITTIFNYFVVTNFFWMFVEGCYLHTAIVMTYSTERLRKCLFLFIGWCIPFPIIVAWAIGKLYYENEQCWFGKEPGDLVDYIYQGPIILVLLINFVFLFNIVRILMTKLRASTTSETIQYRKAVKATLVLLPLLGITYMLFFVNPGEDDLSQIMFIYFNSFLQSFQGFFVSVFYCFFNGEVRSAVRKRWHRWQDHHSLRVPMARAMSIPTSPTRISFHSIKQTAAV
T1 sequence (P24387 whole entry): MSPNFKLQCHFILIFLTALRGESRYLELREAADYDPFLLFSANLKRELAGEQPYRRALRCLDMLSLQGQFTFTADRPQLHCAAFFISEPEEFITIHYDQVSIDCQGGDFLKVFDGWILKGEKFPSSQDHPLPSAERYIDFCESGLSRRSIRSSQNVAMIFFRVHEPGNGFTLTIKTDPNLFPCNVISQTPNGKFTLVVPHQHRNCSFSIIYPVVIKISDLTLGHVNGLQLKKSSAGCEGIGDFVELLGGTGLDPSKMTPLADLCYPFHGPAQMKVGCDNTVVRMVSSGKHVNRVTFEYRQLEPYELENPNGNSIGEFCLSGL

[2] = biological target: T1, Corticotropin-releasing factor receptor 2/Corticotropin-releasing factor-binding protein; experiment: Dose Response confirmation of uHTS hits for small molecule antagonists of the CRF-binding protein and CRF-R2 receptor complex.; assay type: functional; conditions: read-out: IC50_Mean
[3] = cytotoxicity toward NIH3T3 fibroblasts, dose response, counter-screen, cell-based, ATP luminescence, mouse fibroblasts (AID 2010); assay type: functional;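 note: cells exposed to compound for about 90 hours before reading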
[4] = inhibitors of intracellular T. cruzi replication, confirmation, NIH3T3 host cells, beta-gal luminescence (AID 2044); assay type: functional, cell-based;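 note: intracellular parasites grown in NIH/3T3 mouse fibroblasts as host cells; luminescent beta-galactosidase reporter signal from transgenic T. cruzi replicating inside host cells; inhibitors lower the luminescence signal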
Cytochrome P450 2C19 = Cytochrome P450 2C19 (Homo sapiens, UniProt P33261); experiment: Cytochrome panel assay with activity outcomes. Panel member name: p450-cyp2c19 Compounds with AC50 equal or less than 10 uM are considered active; assay type: functional
Cytochrome P450 2D6 = Cytochrome P450 2D6 (Homo sapiens, UniProt P10635);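 note: CYP2D6 member of a cytochrome P450 panel assay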
Streptokinase A = biological target: T2, Streptokinase A (Streptococcus pyogenes serotype M1, UniProt P10520); experiment: S. pyogenes streptokinase expression inhibitors, potency, dose response, plasminogen activation absorbance, OD405 (AID 1914); assay type: functional, Streptococcus pyogenes M1 GAS;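 note: secreted streptokinase activity via plasminogen activation per viability signal from cell pellet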
T2 sequence (P10520 whole entry): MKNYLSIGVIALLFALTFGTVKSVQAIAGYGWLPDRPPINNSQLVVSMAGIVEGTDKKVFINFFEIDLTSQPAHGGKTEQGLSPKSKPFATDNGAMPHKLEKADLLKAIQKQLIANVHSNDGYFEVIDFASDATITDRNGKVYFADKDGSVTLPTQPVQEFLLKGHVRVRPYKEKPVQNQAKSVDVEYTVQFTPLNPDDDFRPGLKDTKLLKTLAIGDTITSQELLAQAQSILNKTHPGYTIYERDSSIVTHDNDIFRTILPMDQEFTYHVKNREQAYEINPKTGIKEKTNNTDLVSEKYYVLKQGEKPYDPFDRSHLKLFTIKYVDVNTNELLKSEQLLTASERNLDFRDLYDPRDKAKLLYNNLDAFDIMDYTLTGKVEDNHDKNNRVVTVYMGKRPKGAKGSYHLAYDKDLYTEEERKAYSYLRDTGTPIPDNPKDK

[5] = tested on: Streptococcus sp. 'group A'; experiment: growth inhibition of control SK(-) GAS strain, dose response, counter-screen for streptokinase expression inhibitor project, luminescence, kanamycin, BacTiterGlo, confirmation (AID 1900); assay type: functional, organism-based
Streptococcus = experiment: Group A Streptococcus viability loss, dose response, counter-screen for streptokinase expression inhibitor project, luminescence, BacTiterGlo (AID 1915); assay type: functional, organism-based;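 note: potency for reduction of bacterial viability or growth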

Chain of Cytochrome P450 2C19 (P33261 whole entry): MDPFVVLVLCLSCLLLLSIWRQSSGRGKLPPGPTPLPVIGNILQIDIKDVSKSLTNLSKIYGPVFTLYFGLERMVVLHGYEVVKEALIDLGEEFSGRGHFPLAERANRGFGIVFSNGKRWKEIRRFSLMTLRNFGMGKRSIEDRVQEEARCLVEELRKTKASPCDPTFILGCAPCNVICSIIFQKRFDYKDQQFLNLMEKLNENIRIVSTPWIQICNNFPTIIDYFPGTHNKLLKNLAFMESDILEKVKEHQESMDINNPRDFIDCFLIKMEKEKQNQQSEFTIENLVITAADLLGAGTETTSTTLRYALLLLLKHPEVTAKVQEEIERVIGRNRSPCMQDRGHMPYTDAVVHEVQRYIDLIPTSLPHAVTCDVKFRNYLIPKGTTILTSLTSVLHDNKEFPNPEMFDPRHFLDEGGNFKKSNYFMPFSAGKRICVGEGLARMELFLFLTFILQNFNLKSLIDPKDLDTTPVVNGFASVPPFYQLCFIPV
Chain of Cytochrome P450 2D6 (P10635 whole entry): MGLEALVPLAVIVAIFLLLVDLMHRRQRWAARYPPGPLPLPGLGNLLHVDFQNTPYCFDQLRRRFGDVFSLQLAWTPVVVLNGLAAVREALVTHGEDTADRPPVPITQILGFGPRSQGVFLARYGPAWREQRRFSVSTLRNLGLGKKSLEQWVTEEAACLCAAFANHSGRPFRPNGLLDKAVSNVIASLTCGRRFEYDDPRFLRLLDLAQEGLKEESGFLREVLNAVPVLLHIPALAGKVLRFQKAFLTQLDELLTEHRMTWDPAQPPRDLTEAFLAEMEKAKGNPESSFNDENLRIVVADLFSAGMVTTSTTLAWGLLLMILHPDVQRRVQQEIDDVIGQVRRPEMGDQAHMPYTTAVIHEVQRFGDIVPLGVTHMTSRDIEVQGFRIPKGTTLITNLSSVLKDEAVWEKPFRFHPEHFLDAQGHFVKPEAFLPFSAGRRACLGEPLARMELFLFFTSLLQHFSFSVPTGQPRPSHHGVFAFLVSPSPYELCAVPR

CC(=O)Oc1ccc2cc(-c3cccnc3)c(=O)oc2c1
EC50 [1]: > 53 µM (inactive)
IC50 [2]: > 47.1 µM (inactive)

CC(=O)NC(=S)Nc1ccc(S(=O)(=O)N(C)Cc2ccccc2)cc1
EC50 [3]: > 30 µM (not active)
EC50 [4]: 1.22 µM (active)

COc1ccc(-n2nc(C)c3c(O)c4c(nc32)CCCC4)cc1
EC50 [3]: > 60 µM (not active)
EC50 [4]: 0.21 µM (active)

CC(Oc1ccc(Cl)cc1)C(=O)Nc1ccccc1N1CCOCC1 (stereo not drawn)
EC50 [1]: 7.37 µM (active)

CNc1nc(N(C)C)nc(N(C)C)n1 [PENTAMETHYL MELAMINE]
EC50 [1]: > 53 µM (inactive)

C=Cn1cc[n+](CC(=O)c2ccc(Cl)cc2)c1
EC50 [1]: > 53 µM (inactive)
IC50 [2]: > 47.1 µM (inactive)

Cc1cc(=O)oc(C)c1C(=O)NCc1ccccn1
AC50 (Cytochrome P450 2C19): inconclusive

CCOC(=O)c1c(CC(C)C)csc1N
EC50 [1]: > 53 µM (inactive)
IC50 [2]: > 47.1 µM (inactive)

O=C(Nc1ccn(Cc2c(F)c(F)cc(F)c2F)n1)c1ccc(COc2ccccc2Cl)cc1
EC50 [3]: > 60 µM (inconclusive)
EC50 [4]: 0.867 µM (active)

COc1ccc(/C=C/c2c([N+](=O)[O-])c(=O)n(C)c(=O)n2C)cc1O
EC50 [1]: > 53 µM (inactive)
IC50 [2]: > 47.1 µM (inactive)

c1ccc(Cc2noc(CN3CCN(CCOc4ccccc4)CC3)n2)cc1
EC50 [3]: > 60 µM (not active)
EC50 [4]: 1.09 µM (active)

COc1ncc2nc(C)c(=O)n(Cc3cccs3)c2n1
AC50 (Cytochrome P450 2D6): 25.1 µM (inconclusive)

Cc1ccc([N+](=O)[O-])cc1NC(=O)CN(C1CCCCC1)S(=O)(=O)c1ccc(Cl)cc1
EC50 [3]: > 60 µM (not active)
EC50 [4]: 3.08 µM (active)

COc1ccccc1CNc1nc(-c2ccoc2)nc2ccccc12
AC50 (Cytochrome P450 2D6): 6.31 µM (active)

O=C1C=C(NCCN2CCOCC2)CC(c2ccccc2)C1 (stereo not drawn)
AC50 (Cytochrome P450 2C19; read-out: AC50): 39.8 µM (inconclusive)

COc1ccc(CN2CCCC(C(=O)c3ccc(Cl)cc3)C2)cc1Cn1cncn1 (stereo not drawn)
EC50 [3]: > 30 µM (not active)
EC50 [4]: 0.508 µM (active)

Cc1cc2c(n1-c1ccc(Br)cc1)CC(C)(C)CC2=O
EC50 [3]: > 60 µM (not active)
EC50 [4]: 2.05 µM (active)

CN1CCN(c2ccc(S(=O)(=O)N3CCCCC3)cc2NC(=O)COc2ccc(F)cc2)CC1
EC50 [3]: > 60 µM (not active)
EC50 [4]: 0.538 µM (active)

O=C(NCc1ccc(OC(F)(F)F)cc1)c1cccc2c1C(=O)c1ccc(N3CCCC3)cc1S2(=O)=O
EC50 [1]: 11.8 µM (active)

O=C(COc1ccccc1C(=O)NCc1ccncc1)Nc1ccc(Br)cc1
EC50 [3]: > 60 µM (not active)
EC50 [4]: 2.15 µM (active)

O=C(O)Cc1ccc2ocnc2c1
AC50 (Cytochrome P450 2C19): inconclusive

CC(=O)Oc1ccccc1C1=NN(C(=O)/C=C/c2ccccc2)C(c2ccccc2)C1 (stereo not drawn)
EC50 (Streptokinase A): > 150 µM (not active)
EC50 [5]: 17.1 µM (active)
EC50 (Streptococcus): > 150 µM (not active)

Cc1cc(C)c2nc(N3C(=O)C(O)=C(C(=O)c4ccco4)C3c3ccco3)sc2c1 (stereo not drawn)
EC50 [5]: 2.52 µM (active)
EC50 (Streptococcus): 5.86 µM (active)

CN(C)CCCNc1oc(-c2ccccc2Cl)nc1S(=O)(=O)c1ccc(F)cc1
EC50 [3]: 24.1 µM (active)
EC50 [4]: 0.135 µM (active)

O=C(NCc1ccccn1)Nc1ccc(F)c(Cl)c1
EC50 (Streptokinase A): > 150 µM (not active)
EC50 [5]: > 150 µM (not active)
EC50 (Streptococcus): > 150 µM (not active)

COc1ccccc1NC(=O)C(=O)NNC(=O)COc1ccc2ccccc2c1
EC50 (Streptokinase A): > 150 µM (not active)
EC50 [5]: 4.14 µM (active)
EC50 (Streptococcus): 17.7 µM (active)

Clc1ccc(-c2[nH]nc3c2CCC3)cc1Cl
EC50 (Streptokinase A): > 150 µM (not active)
EC50 [5]: 8.42 µM (active)
EC50 (Streptococcus): 13.9 µM (active)

Cc1occc1C(=O)NNC(=O)c1ccc(F)cc1
AC50 (Cytochrome P450 2C19): inconclusive

O=C(Nc1cccc(F)c1)NC1CCN(Cc2ccccc2)CC1
EC50 [3]: > 60 µM (not active)
EC50 [4]: 0.736 µM (active)

CCC(=O)Nc1ccc(-c2nnc(-c3ccccc3)o2)cc1
EC50 [3]: > 60 µM (not active)
EC50 [4]: 1.55 µM (active)

CN(CC(=O)Nc1ccc(S(=O)(=O)N2CCCC2)cc1)Cc1ccc(Cl)c(Cl)c1
EC50 [3]: > 60 µM (not active)
EC50 [4]: 2.04 µM (active)

COc1ccccc1N(CC(=O)N1CCCCC1C)S(=O)(=O)c1ccc(Cl)cc1 (stereo not drawn)
EC50 [1]: 5.95 µM (active)

CC(=O)N(CCCN(C)C)c1nc2ccc(C)cc2s1
EC50 [3]: > 60 µM (not active)
EC50 [4]: 0.236 µM (active)

Cc1cccc(CNc2ncncc2-c2cccnc2)c1
AC50 (Cytochrome P450 2D6): 25.1 µM (inconclusive)

CC(CCc1ccccc1)NC(=O)c1ccc(NC(=O)c2cccc(Br)c2)cc1 (stereo not drawn)
EC50 [3]: > 60 µM (not active)
EC50 [4]: 2.02 µM (active)

O=c1c2ccccc2c(-c2ccccc2)nn1-c1ccc(Cl)c(Cl)c1
AC50 (Cytochrome P450 2D6): 10 µM (inconclusive)

Cc1ccc(-c2cc(C(F)F)nc(N3CCC(C)CC3)n2)cc1
EC50 (Streptokinase A): > 150 µM (not active)
EC50 [5]: 6.63 µM (active)
EC50 (Streptococcus): 10 µM (active)

CCC(C)Sc1cc(-c2nc3ccc(C)cn3c2NCc2ccccc2)ccc1OC (stereo not drawn)
EC50 (Streptokinase A): 2.75 µM (active)
EC50 [5]: 2.32 µM (active)
EC50 (Streptococcus): 9.32 µM (active)

c1ccc(Oc2nc(-c3ccccn3)nc3ccccc23)cc1
EC50 [3]: > 60 µM (not active)
EC50 (Streptokinase A): > 150 µM (not active)
EC50 [5]: 44.1 µM (active)
EC50 (Streptococcus): 22.5 µM (active)
EC50 [4]: 3.8 µM (active)

Cc1ccc(OCc2ccc(C(=O)Nc3c(C)nn(Cc4c(F)c(F)c(F)c(F)c4F)c3C)o2)c([N+](=O)[O-])c1
EC50 (Streptokinase A): 25.6 µM (inconclusive)
EC50 [5]: 25.3 µM (active)
EC50 (Streptococcus): > 150 µM (not active)

Cc1ccc(S(=O)(=O)Nc2cc(O)nc3c2CCC3)cc1
AC50 (Cytochrome P450 2D6): 2.51 µM (inconclusive)

Cc1cc(C)c2c(n1)sc1c(=O)n(CC(=O)c3ccccc3)cnc12
EC50 (Streptokinase A): > 150 µM (not active)
EC50 [5]: 0.95 µM (active)
EC50 (Streptococcus): 5.59 µM (active)

CC(=O)N(CC(=O)O)c1ccccc1C(=O)O
AC50 (Cytochrome P450 2C19; read-out: AC50): 0.0562 µM (inconclusive)

CN(CC1CCCO1)S(=O)(=O)c1ccc(C(=O)Nc2nnc(-c3ccccc3)o2)cc1 (stereo not drawn)
EC50 [5]: 4.14 µM (active)
EC50 (Streptococcus): 12.2 µM (active)

CCOC(=O)c1ccc(-c2ccc3c(=O)c4ccccc4n(C)c3c2)cc1F
EC50 (Streptokinase A): > 150 µM (not active)
EC50 [5]: 3.46 µM (active)
EC50 (Streptococcus): > 150 µM (not active)

CCn1c2ccccc2c2cc(NC(=O)C/C(C)=N/NC(=O)c3ccccc3N)ccc21
AC50 (Cytochrome P450 2D6): 25.1 µM (inconclusive)

O=C(O)c1ccc(N=Nc2c(O)[nH]c3ccc(Br)cc23)cc1
EC50 [5]: 4.19 µM (active)
EC50 (Streptococcus): 8.12 µM (active)

CC(C)CN(CC(C)C)S(=O)(=O)N1CCC(C(=O)NCc2ccc(F)cc2)CC1
AC50 (Cytochrome P450 2C19; read-out: AC50): 25.1 µM (inconclusive)

Cc1cnc(CNc2ncnc3ccc(-c4ccc5c(c4)OCO5)cc23)cn1
AC50 (Cytochrome P450 2C19; read-out: AC50): 15.8 µM (inconclusive)

OCC1(Cc2ccc(Cl)cc2)CCN(Cc2ccc(Oc3ncccn3)cc2)CC1
EC50 [3]: > 60 µM (inconclusive)
EC50 [4]: 0.966 µM (active)

CC1CCN(C(=O)c2ccc3c(c2)NC(=O)/C(=C/c2ccccc2)S3)CC1
EC50 (Streptokinase A): > 150 µM (not active)
EC50 [5]: 2.64 µM (active)
EC50 (Streptococcus): 6.87 µM (active)

Cc1cc2nc(/C(C#N)=C\c3ccc(-c4ccccc4C(=O)O)o3)[nH]c2cc1C
EC50 [1]: 5.8 µM (active)

CCC(C)(C)n1nnnc1C(c1cccs1)N1CCN(c2nc3ccccc3s2)CC1 (stereo not drawn)
EC50 [3]: 8.58 µM (active)
EC50 [4]: 1.96 µM (active)

Cc1ccc2cc3cc(C(=O)N(CC(=O)NC4CCCC4)c4cccc(C)c4C)sc3nc2c1
EC50 [3]: > 30 µM (not active)
EC50 [4]: 1.61 µM (active)
